These results are taken from patent US10745408B2, “Biologically active taxane analogs and methods of treatment by oral administration” (Tapestry Pharmaceuticals, Inc., priority 2007, dated 2020).

Entries after “also recorded” stand apart in the source; their conditions may differ.

Usually IC50 stands for the concentration that gives 50% inhibition. Low readings indicate higher potency, high ones lower potency. For orientation: bioavailability means dose-corrected exposure relative to a reference, in per cent.

Data set [1] is described as follows: Central nervous system (CNS) safety study in rats. The data set is classed as in vivo, male Sprague Dawley rats. As for the experimental part: Toxicology. Central Nervous System (CNS) Safety Study in Rats:
This study was conducted at ClinTrials BioResearch (CTBR, Montreal, Quebec, Canada) as a GLP study.
All animals were observed twice daily for signs of ill health or reaction to treatment, except on day of arrival and necropsy. A Functional Observation Battery (FOB) assessment, along with grip strength, hind limb splay and body temperature measurements were performed for all animals once pre-dose and at approximately 15 minutes, 1 hour, 4 hours, 8 hours and 24 hours post-dose. After the last observation, all animals were euthanized without further examination.

Another data set relates to MDA435s. Kind of data set: MTS proliferation assay, breast MDA435s. The data set is classed as cell-based. How it is done: (§1) MTS Proliferation Assay (Promega)
(§2) Day 1: Cells were plated in appropriate growth medium at 5×10^3 per well in 100 ul in 96 well tissue culture plates, Falcon, one for each drug to be tested. Col 1 was blank; it contained no cells, just medium. The plates were incubated overnight at 37° C., 5% CO2 to allow attachment.
(§3) Day 2: Added 120 ul growth medium in wells of 96-well “dilution plates” (one for each drug) and let sit in 37° C. incubator for about 1 hr.
(§4) Thawed DMSO drug stocks (usually at 10 mM). Each drug was diluted 6 ul into a tube with 3 ml growth medium, to 20 μM.
(§5) Aspirated medium from col 12 of a dilution plate; added 200-300 ul of 20 uM drug to wells of col 12. Made serial dilution down this 96-well plate: for a […] dilution pattern, moved 60 ul from col 12 to col 11, mixed 4-5 times (using 8 place multi-pipettor), moved 60 ul to col 10, etc. stopping at col 3.
(§6) Moved 100 ul of medium+drug from dilution plate to a cell plate, i.e. col 1 from drug plate (blank=no cells) to col 1 of cell plate, etc. up to col 12. Col 2 contained cells with no drug. […]
(§7) Day 4 or 5: Terminated the assay 48 to 72 hrs after drug addition. […] When the color turned dark in control wells (col 2), and was still light in col 12, the absorbance at 490 nm was read on a plate reader; the results were used to calculate IC50.
For orientation: Tetrazolium dyes change colour on reduction, which living cells bring about.

A further data set deals with HT29. Kind of data set: MTS proliferation assay, colon HT29. Particulars: Homo sapiens, HT-29. The data set is classed as cell-based. As for the experimental part:
as §1, §2, §3, §4, §5, §6, §7

In a further data set the test system is MESSA. Kind of data set: MTS proliferation assay, uterine MESSA. The data set is classed as cell-based. Particulars: Homo sapiens, MES-SA. How it is done:
as §1, §2, §3, §4, §5, §6, §7

Data set [2] relates to patients with advanced neoplasms. Kind of data set: Phase 1 Study S-(1)-02 safety, tolerability and anti-neoplastic activity. The data set is classed as in vivo, human. The text has this:
(§8) Both trials have enrolled patients with advanced solid tumors, non-Hodgkin's lymphoma or Hodgkin's lymphoma that have recurred or progressed following at least standard therapy; patients with malignancies for which there is no standard therapy; patients who are not candidates for standard therapy; or patients who have chosen not to pursue standard therapy. […] Study S-(1)-01 is currently being conducted in the United States. […] Study S-(1)-02 is currently being conducted in the United States and in Israel.
Treatment cohorts were expanded to 6 pts in the face of dose-limiting toxicity (DLT); pts could remain on study until the development of progressive disease or an intolerable adverse event. DLT was defined as Gr 4 heme toxicity lasting 7 days; febrile neutropenia, Gr 3 thrombocytopenia with bleeding, Gr 3 elevation of transaminases lasting 7 days or any other Gr 3/4 toxicity other than nausea or vomiting.

Data set [3] can be described thus: Human tumor xenografts in nude mice (efficacy and MTD studies). Type of data set: in vivo. Particulars: mouse, in vivo, po; nude mice, from efficacy and MTD studies; read-out: apparent oral bioavailability. (In general: A xenograft is tissue or cells of one species grown in another, often human tumour cells in immunodeficient mice.)
For another data set, the system named is human tumor xenografts. Described as above. The data set is classed as in vivo.
A further data set relates to SKNAS. The data set can be described thus: MTS proliferation assay, neuroblastoma SKNAS. The data set is classed as cell-based. Particulars: Homo sapiens, SK-N-AS. As for the experimental part: as §1, §2, §3, §4, §5, §6, §7
The subject of the next data set is DU145. Kind of data set: MTS proliferation assay, prostate DU145. The data set is classed as cell-based. Particulars: Homo sapiens, DU-145. As for the experimental part: as §1, §2, §3, §4, §5, §6, §7
Data set [4] has as its system patients with advanced neoplasms. The data set can be described thus: Phase 1 Study S-(1)-01 safety, tolerability and anti-neoplastic activity. The data set is classed as in vivo, human.
Text: as §8
Treatment cohorts consisted of 3 pts and were expanded to 6 pts in the face of dose-limiting toxicity (DLT); pts could remain on study until the development of progressive disease or an intolerable adverse event. DLT was defined as Gr 4 heme toxicity lasting 7 days; febrile neutropenia, Gr 3 thrombocytopenia with bleeding, Gr 3 elevation of transaminases lasting 7 days or any other Gr 3/4 toxicity other than nausea or vomiting.

Data set [5] in a line: Crossing of rat blood-brain barrier (FIG. 1). The data set is classed as in vivo.
For a further data set, the system named is MESSA/Dox (MDR+). Kind of data set: MTS proliferation assay, uterine MESSA/Dox (MDR+). The settings on record: Homo sapiens, MES-SA. Type of data set: cell-based. As for the experimental part: as §1, §2, §3, §4, §5, §6, §7
For the next data set, the system named is FADU. Kind of data set: MTS proliferation assay, head/neck FADU. Type of data set: cell-based. Particulars: Homo sapiens. As for the experimental part: as §1, §2, §3, §4, §5, §6, §7

With `C=C[C@H]1O[C@H]2C[C@H]3OC[C@@]3(OC(C)=O)[C@H]3[C@H](OC(=O)c4ccccc4)[C@]4(C(C)(C)O)CC(OC(=O)[C@H](O)C(CC(C)C)NC(=O)OC(C)(C)C)C(C)=C4[C@H](OC(C)=O)[C@H](O1)[C@]23C` (stereo partly drawn) [S-(1)], the “deaths or treatment-related clinical signs” value in [1] (single intravenous 6.25, 12.5 or 25 mg/kg) is listed as “no deaths or treatment-related clinical signs”. Besides, in data set [1] (single intravenous 6.25, 12.5 or 25 mg/kg, 15 minutes, 1, 4, 8 and 24 hours post-dose), the “biological effect on central nervous system (FOB, grip strength, hind limb splay, body temperature)” value is given as “no biological effects”. Further, the “no adverse effect level” value in [1] (single intravenous injection) is 25 mg/kg. In addition, the IC50 in the data set on MDA435s came to 10 nM; in the data set with HT29, 0.006 nM; with MESSA, 2.9 nM; in the data set with SKNAS, 11 nM; in the data set on DU145, 60 nM; in the data set with MESSA/Dox (MDR+), 44.8 nM. This compound returned an IC50 in the data set on FADU of 21 nM. The Dose limiting toxicity result in data set [2] (160 mg/m^2 every 21 days) is on record as “no DLT was observed”; in [2] (185 mg/m^2 every 21 days), “Grade 3 sensory neuropathy; also recorded: Gr 3 peripheral sensory neuropathy”; in [4] (185 mg/m^2, weekly x3, 28-day cycle) it was “Grade 3 sensory neuropathy; also recorded: Grade 3 peripheral neuropathy”. For the same compound, the anti-neoplastic activity result in [2] (1 pt with pancreatic cancer) is listed as “confirmed response”; in data set [4] (patient with pancreatic cancer), “Anti-neoplastic activity was seen”. For the same compound, the “Drug related adverse events” value in data set [2] (56-185 mg/m^2 every 21 days) is “mucositis, vomiting, diarrhea, neutropenia, thrombocytopenia, myalgias and peripheral neuropathy”; in data set [4] (7-185 mg/m^2 weekly x3), “nausea, vomiting, diarrhea, fatigue, anorexia, rash, anemia and peripheral neuropathy”. Moreover, the “dose that can be safely administered” value in data set [2] (every 21 days, heavily pre-treated patients) was 160 mg/m^2; in data set [4] (weekly×3, heavily pre-treated patients) it was “up to 185 mg/m^2”. In addition, in data set [3], the bioavailability lay in the range of 40 to 80%. The “efficacy in mouse xenografts” value in the data set with human tumor xenografts (dosed either oral or iv) is recorded as “shows efficacy”. In the data set with human tumor xenografts (including xenografts that expressed mdr-1 and were resistant to other taxanes), the “antitumor activity against multiple human tumor xenografts” value is on record as “demonstrated antitumor activity; also recorded: suppressed the growth”. Besides, the “crossing of blood-brain barrier” value in data set [5] is recorded as “crosses rat blood-brain barrier”.
